Patent US20080227823A1, “AMIDE DERIVATIVES AS CALCIUM CHANNEL BLOCKERS” (priority 2007, published 2008)

Legend:
Assay in all cases: T-type calcium channel block, whole cell patch clamp in HEK cells
Format in all cases: cell-based
Details in all cases: measured at 1 μM drug, mainly non-inactivated protocol
[1] = target: T1, human α1G T-type channels (Homo sapiens, UniProt O43497)
T1 construct: expressed in transfected cells; host or cells: HEK 293
Method: (§1) T-type calcium channel blocking activity was assayed in human embryonic kidney cells, HEK 293, stably transfected with the T-type calcium channel subunits. Briefly, cells were cultured in Dulbecco's modified eagle medium (DMEM) supplemented with 10% fetal bovine serum, 200 U/ml penicillin and 0.2 mg/ml streptomycin at 37° C. with 5% CO2. At 85% confluency cells were split with 0.25% trypsin/1 mM EDTA and plated at 10% confluency on glass coverslips. At 12 hours the medium was replaced and the cells stably transfected using a standard calcium phosphate protocol and the appropriate calcium channel cDNA's. Fresh DMEM was supplied and the cells transferred to 28° C./5% CO2. Cells were incubated for 1 to 2 days prior to whole cell recording.
(§2) Standard patch-clamp techniques were employed to identify blockers of T-type currents. Briefly, previously described HEK cell lines stably expressing human α1G, α1H and α1I T-type channels were used for all the recordings (passage #: 4-20, 37° C., 5% CO2). Whole cell patch clamp experiments were performed using an Axopatch 200B amplifier (Axon Instruments, Burlingame, Calif.) linked to a personal computer equipped with pCLAMP software. Data were analyzed using Clampfit (Axon Instruments) and SigmaPlot 4.0 (Jandel Scientific). To obtain T-type currents, plastic dishes containing semi-confluent cells were positioned on the stage of a ZEISS AXIOVERT S100 microscope after replacing the culture medium with external solution (see below). Whole-cell patches were obtained using pipettes (borosilicate glass with filament, O.D.: 1.5 mm, I.D.: 0.86 mm, 10 cm length), fabricated on a SUTTER P-97 puller with resistance values of ˜5 MΩ (see below for internal solution).
(§3) T-type currents were reliably obtained by using two voltage protocols: • (1) “non-inactivating”, and • (2) “inactivation”
(§4) In the non-inactivating protocol, the holding potential is set at −110 mV and with a pre-pulse at −100 mV for 1 second prior to the test pulse at −40 mV for 50 ms. In the inactivation protocol, the pre-pulse is at approximately −85 mV for 1 second, which inactivates about 15% of the T-type channels.
(§5) Test compounds were dissolved in external solution, 0.1-0.01% DMSO. After 10 min rest, they were applied by gravity close to the cell using a WPI microfil tubing. The “non-inactivated” pre-pulse was used to examine the resting block of a compound. The “inactivated” protocol was employed to study voltage-dependent block. However, the initial data shown below were mainly obtained using the non-inactivated protocol only. Kd values are shown for various compounds of the invention in Table 4 measured at 1 μM for the drug of interest except for compound 18 which was measured at 200 nM.

[2] = target: T2, human α1I T-type channels (Homo sapiens, UniProt Q9P0X4)
T2 construct: expressed in transfected cells; host or cells: HEK 293
Method: as §1, §2, §3, §4, §5

[3] = target: T3, human α1H T-type channels (Homo sapiens, UniProt O95180)
T3 construct: expressed in transfected cells; host or cells: HEK 293
T3 sequence (O95180 whole entry): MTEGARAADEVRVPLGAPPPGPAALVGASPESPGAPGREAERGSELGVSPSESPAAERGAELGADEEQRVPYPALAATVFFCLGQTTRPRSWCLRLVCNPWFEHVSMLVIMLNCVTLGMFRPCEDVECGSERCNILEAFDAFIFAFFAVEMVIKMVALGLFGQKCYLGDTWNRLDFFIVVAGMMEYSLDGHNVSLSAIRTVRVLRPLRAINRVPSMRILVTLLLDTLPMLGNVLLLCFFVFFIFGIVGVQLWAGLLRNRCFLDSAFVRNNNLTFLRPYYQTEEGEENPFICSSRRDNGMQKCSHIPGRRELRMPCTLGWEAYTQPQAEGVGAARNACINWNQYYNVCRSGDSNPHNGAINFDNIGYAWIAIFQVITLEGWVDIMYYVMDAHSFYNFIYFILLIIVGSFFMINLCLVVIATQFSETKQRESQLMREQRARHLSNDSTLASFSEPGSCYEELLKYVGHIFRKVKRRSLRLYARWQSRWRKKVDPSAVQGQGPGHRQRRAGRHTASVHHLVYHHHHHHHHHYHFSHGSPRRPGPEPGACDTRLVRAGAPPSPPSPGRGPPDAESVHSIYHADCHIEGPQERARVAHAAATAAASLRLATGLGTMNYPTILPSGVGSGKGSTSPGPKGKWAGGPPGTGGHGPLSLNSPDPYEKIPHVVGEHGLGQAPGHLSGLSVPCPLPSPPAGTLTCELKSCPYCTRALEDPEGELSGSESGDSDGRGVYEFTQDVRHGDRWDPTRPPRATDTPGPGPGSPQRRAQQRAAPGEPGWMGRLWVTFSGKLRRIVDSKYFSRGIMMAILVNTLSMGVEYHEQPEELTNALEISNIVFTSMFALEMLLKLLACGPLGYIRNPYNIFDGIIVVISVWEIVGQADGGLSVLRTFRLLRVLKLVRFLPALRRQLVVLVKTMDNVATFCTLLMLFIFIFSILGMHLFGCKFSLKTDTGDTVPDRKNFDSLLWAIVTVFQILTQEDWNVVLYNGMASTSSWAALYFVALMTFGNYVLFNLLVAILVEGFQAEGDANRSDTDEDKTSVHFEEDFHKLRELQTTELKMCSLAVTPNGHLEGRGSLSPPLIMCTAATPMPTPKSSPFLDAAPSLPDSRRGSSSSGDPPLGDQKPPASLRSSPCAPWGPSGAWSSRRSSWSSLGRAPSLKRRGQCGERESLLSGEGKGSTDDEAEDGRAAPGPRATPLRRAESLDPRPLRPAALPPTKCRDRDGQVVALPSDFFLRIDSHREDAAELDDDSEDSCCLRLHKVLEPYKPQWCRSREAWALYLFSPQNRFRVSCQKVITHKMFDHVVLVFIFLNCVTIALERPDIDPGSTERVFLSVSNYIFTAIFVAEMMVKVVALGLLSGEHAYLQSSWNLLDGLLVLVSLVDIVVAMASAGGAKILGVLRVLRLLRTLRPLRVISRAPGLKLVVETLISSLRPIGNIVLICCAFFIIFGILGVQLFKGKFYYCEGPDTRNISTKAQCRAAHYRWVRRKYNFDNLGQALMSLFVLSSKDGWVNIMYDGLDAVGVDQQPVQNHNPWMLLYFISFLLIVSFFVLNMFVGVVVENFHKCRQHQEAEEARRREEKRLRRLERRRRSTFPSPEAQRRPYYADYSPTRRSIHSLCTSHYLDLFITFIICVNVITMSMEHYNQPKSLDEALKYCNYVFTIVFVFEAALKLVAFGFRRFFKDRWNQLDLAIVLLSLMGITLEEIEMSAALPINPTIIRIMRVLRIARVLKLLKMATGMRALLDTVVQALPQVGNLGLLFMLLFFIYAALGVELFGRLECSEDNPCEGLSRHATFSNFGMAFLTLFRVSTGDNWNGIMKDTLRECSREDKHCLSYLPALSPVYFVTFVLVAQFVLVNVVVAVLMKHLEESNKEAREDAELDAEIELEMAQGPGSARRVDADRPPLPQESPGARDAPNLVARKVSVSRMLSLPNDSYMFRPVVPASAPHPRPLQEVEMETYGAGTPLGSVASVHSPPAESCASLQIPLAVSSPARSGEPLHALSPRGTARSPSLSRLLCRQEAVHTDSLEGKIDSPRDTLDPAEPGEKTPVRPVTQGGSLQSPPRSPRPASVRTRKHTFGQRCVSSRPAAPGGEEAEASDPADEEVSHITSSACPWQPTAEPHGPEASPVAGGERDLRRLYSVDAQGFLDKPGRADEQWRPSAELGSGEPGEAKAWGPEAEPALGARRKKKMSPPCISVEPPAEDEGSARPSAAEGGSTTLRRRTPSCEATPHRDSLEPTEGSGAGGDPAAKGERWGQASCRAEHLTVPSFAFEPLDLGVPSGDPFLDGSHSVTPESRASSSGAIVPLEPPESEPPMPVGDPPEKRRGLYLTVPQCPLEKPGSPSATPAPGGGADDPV
Method: as §1, §2, §3, §4, §5

T1 sequence (O43497 whole entry): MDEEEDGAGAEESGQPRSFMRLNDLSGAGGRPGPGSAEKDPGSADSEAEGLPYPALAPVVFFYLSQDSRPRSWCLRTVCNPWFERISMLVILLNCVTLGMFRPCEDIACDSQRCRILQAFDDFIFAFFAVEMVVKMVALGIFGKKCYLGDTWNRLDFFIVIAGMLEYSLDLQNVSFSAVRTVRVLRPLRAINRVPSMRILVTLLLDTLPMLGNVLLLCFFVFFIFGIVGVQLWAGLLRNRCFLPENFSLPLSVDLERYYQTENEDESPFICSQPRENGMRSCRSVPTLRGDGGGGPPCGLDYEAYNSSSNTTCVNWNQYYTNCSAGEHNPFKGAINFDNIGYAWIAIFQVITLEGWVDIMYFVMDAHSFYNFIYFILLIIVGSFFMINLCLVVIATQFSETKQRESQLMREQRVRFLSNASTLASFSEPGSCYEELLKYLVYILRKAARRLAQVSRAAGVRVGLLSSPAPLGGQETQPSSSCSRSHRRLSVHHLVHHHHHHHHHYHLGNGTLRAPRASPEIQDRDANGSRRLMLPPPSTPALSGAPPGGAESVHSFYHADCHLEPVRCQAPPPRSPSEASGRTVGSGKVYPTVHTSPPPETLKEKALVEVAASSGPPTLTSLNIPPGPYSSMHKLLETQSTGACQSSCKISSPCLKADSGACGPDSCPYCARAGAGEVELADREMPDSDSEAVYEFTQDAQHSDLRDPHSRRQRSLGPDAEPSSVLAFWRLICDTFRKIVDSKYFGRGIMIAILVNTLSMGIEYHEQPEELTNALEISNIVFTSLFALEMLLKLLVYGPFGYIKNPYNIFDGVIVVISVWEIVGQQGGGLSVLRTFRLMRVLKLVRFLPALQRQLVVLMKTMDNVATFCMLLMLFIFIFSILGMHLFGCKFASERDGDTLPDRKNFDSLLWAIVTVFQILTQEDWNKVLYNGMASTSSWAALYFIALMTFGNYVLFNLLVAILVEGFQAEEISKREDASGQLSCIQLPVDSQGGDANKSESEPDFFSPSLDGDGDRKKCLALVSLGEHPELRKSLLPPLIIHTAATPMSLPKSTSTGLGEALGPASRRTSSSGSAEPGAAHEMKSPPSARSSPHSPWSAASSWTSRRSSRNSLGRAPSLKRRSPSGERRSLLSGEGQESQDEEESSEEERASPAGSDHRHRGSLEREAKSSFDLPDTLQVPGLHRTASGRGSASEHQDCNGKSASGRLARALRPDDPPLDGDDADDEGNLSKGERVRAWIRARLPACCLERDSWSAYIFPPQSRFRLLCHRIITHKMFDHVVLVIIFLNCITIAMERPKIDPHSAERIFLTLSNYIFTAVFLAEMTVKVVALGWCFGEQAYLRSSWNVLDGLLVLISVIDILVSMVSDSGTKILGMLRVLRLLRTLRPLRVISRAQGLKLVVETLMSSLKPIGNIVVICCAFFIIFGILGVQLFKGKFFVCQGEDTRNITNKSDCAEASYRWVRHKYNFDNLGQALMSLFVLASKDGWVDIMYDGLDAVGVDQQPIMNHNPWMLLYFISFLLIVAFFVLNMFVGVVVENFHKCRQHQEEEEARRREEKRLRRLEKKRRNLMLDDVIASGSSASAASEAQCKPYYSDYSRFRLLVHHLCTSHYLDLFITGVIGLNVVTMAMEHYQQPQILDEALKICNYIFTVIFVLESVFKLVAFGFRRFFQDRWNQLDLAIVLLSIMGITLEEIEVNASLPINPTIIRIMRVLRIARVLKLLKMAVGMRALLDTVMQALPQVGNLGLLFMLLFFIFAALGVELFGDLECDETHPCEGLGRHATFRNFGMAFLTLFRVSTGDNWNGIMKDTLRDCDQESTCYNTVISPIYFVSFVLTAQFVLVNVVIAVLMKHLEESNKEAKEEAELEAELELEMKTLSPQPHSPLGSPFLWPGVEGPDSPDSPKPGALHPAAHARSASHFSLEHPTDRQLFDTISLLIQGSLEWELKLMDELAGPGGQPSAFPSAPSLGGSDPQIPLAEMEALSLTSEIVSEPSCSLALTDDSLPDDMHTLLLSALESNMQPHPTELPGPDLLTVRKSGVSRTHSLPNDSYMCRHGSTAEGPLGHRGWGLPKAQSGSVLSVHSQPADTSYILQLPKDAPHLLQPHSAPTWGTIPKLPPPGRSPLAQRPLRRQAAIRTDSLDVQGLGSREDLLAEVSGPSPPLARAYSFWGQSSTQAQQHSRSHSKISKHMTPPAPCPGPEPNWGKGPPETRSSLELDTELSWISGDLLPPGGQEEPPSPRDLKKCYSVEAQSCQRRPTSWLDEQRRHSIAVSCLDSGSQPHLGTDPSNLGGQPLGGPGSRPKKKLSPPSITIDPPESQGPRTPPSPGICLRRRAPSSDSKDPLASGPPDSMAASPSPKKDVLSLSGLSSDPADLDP

Kd [1] [nM]	Kd [2] [nM]	Kd [3] [nM]	SMILES
1350	–	–	O=C(NCCc1c[nH]c2ccc(F)cc12)C1CCCN1C(=O)/C=C/c1ccc(F)c(Br)c1 (stereo in doubt) [Compound 19, (R,E)-1-(3-(3-bromo-4-fluorophenyl)acryloyl)-N-(2-(5-fluoro-1H-indol-3-yl)ethyl)pyrrolidine-2-carboxamide]
360	480	–	CC(C)(NC(=O)/C=C/c1ccc(F)c(Br)c1)C(=O)NCCc1c[nH]c2ccc(F)cc12 [Compound 15, (E)-3-(3-bromo-4-fluorophenyl)-N-(1-(2-(5-fluoro-1H-indol-3-yl)ethylamino)-2-methyl-1-oxopropan-2-yl)acrylamide]
430	–	–	O=C(/C=C/c1ccc(F)c(Br)c1)NC1(C(=O)NCCc2c[nH]c3ccc(F)cc23)CCOCC1 [Compound 16, (E)-4-(3-(3-bromo-4-fluorophenyl)acrylamido)-N-(2-(5-fluoro-1H-indol-3-yl)ethyl)tetrahydro-2H-pyran-4-carboxamide]
2620	–	–	CC(=O)N1CCC(NC(=O)/C=C/c2ccc(F)c(Br)c2)(C(=O)NCCc2c[nH]c3ccc(F)cc23)CC1 [Compound 21, (E)-1-acetyl-4-(3-(3-bromo-4-fluorophenyl)acrylamido)-N-(2-(5-fluoro-1H-indol-3-yl)ethyl)piperidine-4-carboxamide]
5370	–	–	COCCC(=O)N1CCC(NC(=O)/C=C/c2ccc(F)c(Br)c2)(C(=O)NCCc2c[nH]c3ccc(F)cc23)CC1 [Compound 25, (E)-4-(3-(3-bromo-4-fluorophenyl)acrylamido)-N-(2-(5-fluoro-1H-indol-3-yl)ethyl)-1-(3-methoxypropanoyl)piperidine-4-carboxamide]
550	–	–	CCNC(=O)N1CCC(NC(=O)/C=C/c2ccc(F)c(Br)c2)(C(=O)NCCc2c[nH]c3ccc(F)cc23)CC1 [Compound 26, (E)-4-(3-(3-bromo-4-fluorophenyl)acrylamido)-N1-ethyl-N4-(2-(5-fluoro-1H-indol-3-yl)ethyl)piperidine-1,4-dicarboxamide]
2450	–	–	O=C(/C=C/c1ccc(F)cc1)NC1(C(=O)Nc2cccc(C(F)(F)F)c2)CCNCC1 [Compound 33, (E)-4-(3-(4-fluorophenyl)acrylamido)-N-(3-(trifluoromethyl)phenyl)piperidine-4-carboxamide]
3290	–	–	O=C(/C=C/c1ccc(F)c(F)c1)NC1(C(=O)Nc2ccccc2)CCNCC1 [Compound 34, (E)-4-(3-(3,4-difluorophenyl)acrylamido)-N-phenylpiperidine-4-carboxamide]
130	–	2420	O=C(/C=C\c1ccccc1)NC1(C(=O)Nc2cc(C(F)(F)F)cc(C(F)(F)F)c2)CCNCC1 [Compound 40, (Z)-N-(3,5-bis(trifluoromethyl)phenyl)-4-(3-phenylacrylamido)piperidine-4-carboxamide]
220	–	41900	CN1CCC(NC(=O)/C=C/c2ccc(F)cc2)(C(=O)Nc2cc(C(F)(F)F)cc(C(F)(F)F)c2)CC1 [Compound 42, (E)-N-(3,5-bis(trifluoromethyl)phenyl)-4-(3-(4-fluorophenyl)acrylamido)-1-methylpiperidine-4-carboxamide]
80	–	1120	Cc1cc(/C=C/C(=O)NC2(C(=O)Nc3cc(C(F)(F)F)cc(C(F)(F)F)c3)CCN(C)CC2)ccc1F [Compound 43, (E)-N-(3,5-bis(trifluoromethyl)phenyl)-4-(3-(4-fluoro-3-methylphenyl)acrylamido)-1-methylpiperidine-4-carboxamide]
320	–	1610	O=C(/C=C/c1ccc(F)cc1)NC1(C(=O)Nc2cc(Cl)cc(Cl)c2)CCNCC1 [Compound 44, (E)-N-(3,5-dichlorophenyl)-4-(3-(4-fluorophenyl)acrylamido)piperidine-4-carboxamide]
14600	–	–	O=C(/C=C/c1ccc(F)cc1)NC1(C(=O)Nc2ccccc2C(F)(F)F)CCNCC1 [Compound 46, (E)-4-(3-(4-fluorophenyl)acrylamido)-N-(2-(trifluoromethyl)phenyl)piperidine-4-carboxamide]
580	–	–	CN(CCc1c[nH]c2ccc(F)cc12)C(=O)C1(NC(=O)/C=C/c2ccc(F)cc2)CCNCC1 [Compound 49, (E)-N-(2-(5-fluoro-1H-indol-3-yl)ethyl)-4-(3-(4-fluorophenyl)acrylamido)-N-methylpiperidine-4-carboxamide]
80	–	2970	O=C(/C=C/c1ccc(F)c(F)c1)NC1(C(=O)Nc2ccccc2Oc2ccccc2)CCNCC1 [Compound 50, (E)-4-(3-(3,4-difluorophenyl)acrylamido)-N-(2-phenoxyphenyl)piperidine-4-carboxamide]
160	–	–	O=C(/C=C/c1ccc(F)cc1)NC1(C(=O)Nc2cc(C(F)(F)F)cc(C(F)(F)F)c2)CCN(c2ncccn2)CC1 [Compound 52, (E)-N-(3,5-bis(trifluoromethyl)phenyl)-4-(3-(4-fluorophenyl)acrylamido)-1-(pyrimidin-2-yl)piperidine-4-carboxamide]
210	–	6320	O=C(/C=C/c1ccc(F)cc1)NC1(C(=O)Nc2cc(C(F)(F)F)cc(C(F)(F)F)c2)CCN(C2CCOCC2)CC1 [Compound 54, (E)-N-(3,5-bis(trifluoromethyl)phenyl)-4-(3-(4-fluorophenyl)acrylamido)-1-(tetrahydro-2H-pyran-4-yl)piperidine-4-carboxamide]
1060	–	–	O=C(/C=C/c1ccc(F)cc1)NC1(C(=O)Nc2cc(C(F)(F)F)cc(C(F)(F)F)c2)CCC(O)CC1 (stereo not drawn) [Compound 56, (E)-N-(3,5-bis(trifluoromethyl)phenyl)-1-(3-(4-fluorophenyl)acrylamido)-4-hydroxycyclohexanecarboxamide]
130	–	–	COCCN1CCC(NC(=O)/C=C/c2ccc(F)cc2)(C(=O)Nc2cc(C(F)(F)F)cc(C(F)(F)F)c2)CC1 [Compound 57, (E)-N-(3,5-bis(trifluoromethyl)phenyl)-4-(3-(4-fluorophenyl)acrylamido)-1-(2-methoxyethyl)piperidine-4-carboxamide]
990	–	–	COCCOC1CCC(NC(=O)/C=C/c2ccc(F)cc2)(C(=O)Nc2cc(C(F)(F)F)cc(C(F)(F)F)c2)CC1 (stereo not drawn) [Compound 61, (E)-N-(3,5-bis(trifluoromethyl)phenyl)-1-(3-(4-fluorophenyl)acrylamido)-4-(2-methoxyethoxy)cyclohexanecarboxamide]
280	–	–	NC(=O)CN1CCC(NC(=O)/C=C/c2ccc(F)cc2)(C(=O)Nc2cc(C(F)(F)F)cc(C(F)(F)F)c2)CC1 [Compound 62, (E)-1-(2-amino-2-oxoethyl)-N-(3,5-bis(trifluoromethyl)phenyl)-4-(3-(4-fluorophenyl)acrylamido)piperidine-4-carboxamide]
90	–	–	NCC(=O)N1CCC(NC(=O)/C=C/c2ccc(F)cc2)(C(=O)Nc2cc(C(F)(F)F)cc(C(F)(F)F)c2)CC1 [Compound 63, (E)-1-(2-aminoacetyl)-N-(3,5-bis(trifluoromethyl)phenyl)-4-(3-(4-fluorophenyl)acrylamido)piperidine-4-carboxamide]
2570	–	–	CN(CCc1c[nH]c2ccc(F)cc12)C(=O)C1(NC(=O)/C=C/c2ccc(F)cc2)CCN(CC(N)=O)CC1 [Compound 65, (E)-1-(2-amino-2-oxoethyl)-N-(2-(5-fluoro-1H-indol-3-yl)ethyl)-4-(3-(4-fluorophenyl)acrylamido)-N-methylpiperidine-4-carboxamide]
1630	–	–	CC(C)(O)C(=O)N1CCC(NC(=O)/C=C/c2ccc(F)cc2)(C(=O)Nc2cc(C(F)(F)F)cc(C(F)(F)F)c2)CC1 [Compound 66, (E)-N-(3,5-bis(trifluoromethyl)phenyl)-4-(3-(4-fluorophenyl)acrylamido)-1-(2-hydroxy-2-methylpropanoyl)piperidine-4-carboxamide]
1020	–	–	CN(CCc1c[nH]c2ccc(F)cc12)C(=O)C1(NC(=O)/C=C/c2ccc(F)cc2)CCN(C(=O)CN)CC1 [Compound 67, (E)-1-(2-aminoacetyl)-N-(2-(5-fluoro-1H-indol-3-yl)ethyl)-4-(3-(4-fluorophenyl)acrylamido)-N-methylpiperidine-4-carboxamide]
3630	–	–	CC(C)(O)CN1CCC(NC(=O)/C=C/c2ccc(F)cc2)(C(=O)NCCc2c[nH]c3ccc(F)cc23)CC1 [Compound 69, (E)-N-(2-(5-fluoro-1H-indol-3-yl)ethyl)-4-(3-(4-fluorophenyl)acrylamido)-1-(2-hydroxy-2-methylpropyl)piperidine-4-carboxamide]
